# Measured values reported in EP0648744A1, “Phenylalkanolamine derivatives as antagonists of the NMDA receptor” (F. HOFFMANN-LA ROCHE AG, priority 1993, dated 1995).
# Assays:
# [1] = target: NMDA receptor; experiment: 3H-MK 801 (dizocilpine) binding in vitro, rat brain membranes; conditions: displacement of 5 nM ³H-MK 801, washed rat brain membranes; high affinity values determined from biphasic displacement curves; read-out: IC₅₀
# Description: 1. ^3H-MK 801 (dizocilpine) binding in vitro
# ³H-MK 801 binding was performed as described in Ransom, R.W. and Stec, N.L., J. Neurochem. 51 (1988) 830-836, with extensively washed rat brain membranes prepared according to the following scheme. Frozen whole rat brain was thawed and cerebellum and medulla oblongata were removed on ice. The tissue was then homogenized with an Ultra Turrax (maximal energy) during 30 sec at 4°C in 50 volumes of Tris·HC1 (5mM) with ethylenediaminetetraacetic acid (EDTA) disodium (10 mM, pH = 7.4). The homogenate was centrifuged at 48'000 x g for 10 min. The pellet was rehomogenized with the same volume of the same buffer and the homogenate was then incubated at 37°C for 10 min. After centrifugation the pellet was rehomogenized under the same conditions and frozen at -80°C in 35 ml fractions for at least 16 hours and not more than 2 weeks.
# On the day of experiment, the homogenate was thawed 15 minutes at 37°C and centrifuged as above. The pellet was rehomogenized in 25 volumes of Tris·HC1 buffer (5mM, pH = 7.4) and the homogenate was recentrifuged. This procedure was repeated twice. The final pellet was rehomogenized in 25 volumes of Tris·HC1 buffer (5 mM, pH = 7.4) related to the original wet weight and used as such in the assay. Final concentration in the assay was 20 mg/ml.
# 300 µl of tracer solution (final concentration 5 nM ³H-MK 801) in Tris·HC1 buffer (5 mM, pH 7.4) were incubated with 100 µl of test solution (100 µl of Tris·HC1 buffer for the total binding or 100 µl of buffer plus N-(1-(2-thienyl)cyclohexyl)piperidine (TCP) (final concentration 0.1 µM) for non specific binding). Glutamate, glycine and spermidine (final concentrations 1nM) were added together in 100 µl volume. 500 µl of homogenate (final concentration 20 mg/ml) were then added in the plastic reaction tubes. After 2 hours of incubation at room temperature, the suspension was filtered (Whatmann GF/B, presoaked in 0.05% polyethylenimine for 2 hours) and washed 5 times with 3 ml of cold buffer. The air-dried (3 min) filters were counted in 10 ml of Ultima-gold (Packard) after agitation (10 min.) and standing for 2 hours at 3°C in vials.
# These are high affinity values determined from biphasic displacement curves.
# [2] = system: embryonic rat cortices; experiment: Acute glutamate neurotoxicity in cortical cell cultures (lactate dehydrogenase release); format: cell-based; conditions: neuronal degeneration, 500 µM glutamate for 5 to 30 minutes at room temperature, lactate dehydrogenase in supernatant after overnight at 37°C, read-out: IC₅₀
# Description: 2. Acute Glutamate Neurotoxicity
# Single cell suspensions were prepared from embryonic rat cortices (E16-17) by digestion with dispase 2.4 U/ml (BOEHRINGER) and subsequent trituration with fire polished pasteur pipettes. The cells were then plated on poly-D-lysine (SIGMA) coated 96 well microtiter plates (NUNC, 10⁵ cells/well) in a total volume of 100 µl Dulbeccos modified essential medium (DMEM, GIBCO) supplemented with 10% horse serum and penicillin/streptomycin (SIGMA). 5 days later, non-neuronal cell division was halted by exposure to […] combined with a 50% exchange of culture medium. The cultures were used for neurotoxicity assays from 8-12 days in vitro.
# Acute glutamate toxicity was performed according to D.W. Choi. J. Koh and S. Peters, J. Neurosci. 8 (1988) 185-196, in 100 µl of a control salt solution (CSS: 120 mM NaCl, 5.4 mM KCl, 0.8 mm MgCl₂, 1.8 mM CaCl₂, 25 mM Tris HCl (pH 7.4 at 25°C) and 15 mM glycose) with 500 µM glutamate for 5 to 30 minutes at room temperature with or without addition of substances to be tested.
# After washing, the cultures were maintained in 100 µl CSS overnight at 37°C. For quantitation of neurodegeneration, lactate dehydrogenase was measured in the cell culture supernatant as described by J.G. Klingman, D.M. Hartley and D.W. Choi, J. Neurosci. Meth. 31 (1990) 47-51 using a BIOMEK workstation (BECKMAN). […] From dose response curves IC₅₀ values were calculated.
SMILES,IC50 [1],IC50 [2]
"C[C@@H](CN1CCC(Cc2ccccc2)CC1)[C@@H](O)c1ccc(OCc2ccccc2)cc1 (relative stereo) [Ex. 7, (R*,S*)-rac.-β-Methyl-α-[4-(phenylmethoxy)phenyl]-4-(phenylmethyl)-1-piperidinepropanol]",1300 nM,64000 nM
"C[C@@H](CN1CCC(Cc2ccccc2)CC1)[C@@H](O)c1ccc(O)cc1 (relative stereo) [Ex. 8, (R*,S*)-rac.-α-(4-hydroxyphenyl)-β-methyl-4-(phenylmethyl)-1-piperidinepropanol]",5 nM,40 nM
"C[C@H](CN1CCC(Cc2ccccc2)CC1)[C@@H](O)c1ccc(O)cc1 (relative stereo) [Ex. 9, (R*,R*)-rac.-α-(4-Hydroxyphenyl)-β-methyl-4-(phenylmethyl)-1-piperidinepropanol]",6 nM,110 nM
"C[C@@H](CN1CCC(Cc2ccccc2)CC1)[C@@H](O)c1ccc(O)cc1 [Ex. 15, [R-(R*S*)]-α-(4-Hydroxyphenyl)-β-methyl-4-(phenylmethyl)-1-piperidinepropanol]",1.3 nM,60 nM
"C[C@H](CN1CCC(Cc2ccccc2)CC1)[C@H](O)c1ccc(O)cc1 [Ex. 16, [S-(R*S*)]-α-(4-Hydroxyphenyl)-β-methyl]-4-(phenylmethyl)-1-piperidinepropanol]",3 nM,80 nM

# Second part, led by results:
IC50 [1],SMILES,IC50 [2]
530 nM,"CC(CCN1CCC(Cc2ccccc2)CC1)Cc1ccc(O)cc1 (racemic) [Ex. 6, rac.-4-[2-Methyl-4-[4-(phenylmethyl)-1-piperidinyl]butyl]phenol]",3500 nM
150 nM,"CC(Cc1ccc(O)cc1)C(C)N1CCC(Cc2ccccc2)CC1 (racemic) [Ex. 10, rac.-4-[2-Methyl-3-[4-(phenylmethyl)-1-piperidinyl]butyl]phenol]",120 nM
1400 nM,"CC(Cc1ccccc1)CN1CCC(Cc2ccccc2)CC1 (racemic) [Ex. 21, rac.-1-(2-Methyl-3-phenylpropyl)-4-(phenylmethyl)piperidine]",13000 nM
300 nM,"C[C@@H](CCN1CCC(Cc2ccccc2)CC1)[C@@H](O)c1ccc(O)cc1 (relative stereo) [Ex. 5, (R*,S*)-rac.-α-(4-Hydroxyphenyl)-β-methyl-4-(phenylmethyl)-1-piperidinebutanol]",1900 nM
900 nM,"C[C@@H](CN1CCC(Cc2ccccc2)CC1)C(=O)c1ccc(OCc2ccccc2)cc1 [Ex. 12, (S)-2-Methyl-1-[4-(phenylmethoxy)phenyl]-3-[4-(phenylmethyl)-1-piperidinyl]-1-propanone]",66000 nM
